ChEMBL document CHEMBL4706511, “Structure-based design, synthesis and bioactivity evaluation of macrocyclic inhibitors of mutant isocitrate dehydrogenase 2 (IDH2) displaying activity in acute myeloid leukemia cells” (Eur J Med Chem, 2020)

Columns and labels:
[1] = AUC (0 to infinity) in Sprague-Dawley rat at 1 mg/kg, iv measured up to 24 hrs by LC-MS/MS analysis; assay type: ADME, organism-based; design: route intravenous, dose 1 mg/kg, time <=24; details: in vivo
[2] = Cmax in Sprague-Dawley rat at 10 mg/kg, po measured up to 24 hrs by LC-MS/MS analysis; assay type: ADME, organism-based; design: route oral, dose 10 mg/kg, time <=24; details: in vivo
[3] = AUC (0 to t) in Sprague-Dawley rat at 10 mg/kg, po measured up to 24 hrs by LC-MS/MS analysis; assay type: ADME, organism-based; design: route oral, dose 10 mg/kg, time <=24; details: in vivo
[4] = Tmax in Sprague-Dawley rat at 10 mg/kg, po measured up to 24 hrs by LC-MS/MS analysis; assay type: ADME, organism-based; details: in vivo
[5] = Half life in Sprague-Dawley rat at 1 mg/kg, iv measured up to 24 hrs by LC-MS/MS analysis; assay type: ADME, organism-based; details: in vivo
[6] = molecular target: Isocitrate dehydrogenase [NADP], mitochondrial (Homo sapiens, UniProt P48735, R172K); experiment: Inhibition of IDH2 R172K mutant (unknown origin) assessed as reduction in NADPH consumption using alpha-ketoglutarate and NADPH as substrate preincubated with enzyme for 15 mins followed by substrate addition by fluorescence based assay
[7] = MRT (0 to t) in Sprague-Dawley rat at 1 mg/kg, iv measured upto 24 hrs by LC-MS/MS analysis; assay type: ADME, organism-based; details: in vivo
[8] = Half life in Sprague-Dawley rat at 10 mg/kg, po measured up to 24 hrs by LC-MS/MS analysis; assay type: ADME, organism-based; details: in vivo
[9] = Cmax in Sprague-Dawley rat at 1 mg/kg, iv measured up to 24 hrs by LC-MS/MS analysis; assay type: ADME, organism-based; design: route intravenous, dose 1 mg/kg, time <=24; details: in vivo
[10] = AUC (0 to infinity) in Sprague-Dawley rat at 10 mg/kg, po measured up to 24 hrs by LC-MS/MS analysis; assay type: ADME, organism-based; design: route oral, dose 10 mg/kg, time <=24; details: in vivo
[11] = Oral bioavailability Sprague-Dawley rat at 10 mg/kg measured up to 24 hrs by LC-MS/MS analysis; assay type: ADME, organism-based; details: in vivo
[12] = AUC (0 to t) in Sprague-Dawley rat at 1 mg/kg, iv measured up to 24 hrs by LC-MS/MS analysis; assay type: ADME, organism-based; design: route intravenous, dose 1 mg/kg, time <=24; details: in vivo
[13] = molecular target: Isocitrate dehydrogenase [NADP], mitochondrial (Homo sapiens, UniProt P48735, R140Q); experiment: Inhibition of IDH2 R140Q mutant (unknown origin) assessed as reduction in NADPH consumption using alpha-ketoglutarate and NADPH as substrate preincubated with enzyme for 15 mins followed by substrate addition by fluorescence based assay
[14] = MRT (0 to t) in Sprague-Dawley rat at 10 mg/kg, po measured upto 24 hrs by LC-MS/MS analysis; assay type: ADME, organism-based; details: in vivo

Sequence of Isocitrate dehydrogenase [NADP], mitochondrial (Homo sapiens, UniProt P48735, R172K) (P48735 40-452 R172K limits assumed): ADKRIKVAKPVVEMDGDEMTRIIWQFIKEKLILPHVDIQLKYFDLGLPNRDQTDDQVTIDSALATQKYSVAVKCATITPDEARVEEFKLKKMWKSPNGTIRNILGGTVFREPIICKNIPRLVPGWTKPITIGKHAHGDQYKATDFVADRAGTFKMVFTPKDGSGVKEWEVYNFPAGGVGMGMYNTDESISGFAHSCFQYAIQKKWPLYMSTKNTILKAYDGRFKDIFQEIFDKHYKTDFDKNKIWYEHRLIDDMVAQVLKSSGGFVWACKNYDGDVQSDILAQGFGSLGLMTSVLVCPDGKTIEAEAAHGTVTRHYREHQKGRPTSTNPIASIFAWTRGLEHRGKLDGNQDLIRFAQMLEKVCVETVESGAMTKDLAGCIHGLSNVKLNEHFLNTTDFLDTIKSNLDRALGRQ
Sequence of Isocitrate dehydrogenase [NADP], mitochondrial (Homo sapiens, UniProt P48735, R140Q) (P48735 40-452 R140Q limits assumed): as the sequence (P48735 40-452 R172K limits assumed) above, with R101Q, K133R counted along it

AUC [1]: 1372.5 ng·h/mL
Cmax [2]: 237 ng/mL
AUC(0-t) at 24 h [3]: 2700 ng·h/mL
Tmax [4]: 1.33 h
t1/2 [5]: 0.22 h
IC50 [6]: 0.0785 µM
MRT(t) [7]: 2.4 h
half-life [8]: 6.63 h
Cmax [9]: 1255.13 ng/mL
AUC(0-inf) [10]: 2750 ng·h/mL
bioavailability [11]: 19.8%
AUC(0-t) at 24 h [12]: 1370 ng·h/mL
IC50 [13]: 0.0609 µM
MRT last at 24 h [14]: 6.03 h
SMILES: CS(=O)(=O)O.FC(F)(F)c1cc2cc(c1)Nc1nc(nc(-c3cccc(C(F)(F)F)n3)n1)NCCCCCC2
